Reference: ChEMBL document CHEMBL1201862, “PubChem BioAssay data set” (2004)
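Method: 48-hour compound exposure of cells in 96-well plates, five concentrations, linear interpolation of endpoints. GI50 is the concentration that inhibits growth by half.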 The source made the active and inactive calls. Cut-off read from the data, not from the text of the source: active = GI50 up to about 1.1 µM and inactive = higher.

Legend:
Assay in all cases: NCI anticancer screen, dose series, 48 h
786-0 = system: 786-0
A498 = system: A498
A549 = system: A549
ACHN = system: ACHN
CAKI-1 = system: CAKI-1
CCRF-CEM = system: CCRF-CEM
COLO 205 = system: COLO 205
DLD-1 = system: DLD-1
DMS-114 = system: DMS-114
DMS-273 = system: DMS-273
HCC 2998 = system: HCC 2998
HCT-116 = system: HCT-116
HCT-15 = system: HCT-15
HL-60 = system: HL-60
HOP-18 = system: HOP-18
HOP-62 = system: HOP-62
HOP-92 = system: HOP-92
HT-29 = system: HT-29
IGROV-1 = system: IGROV-1
K562 = system: K562
KM-20L2 = system: KM-20L2
KM12 = system: KM12
LOX IMVI = system: LOX IMVI
LXFL 529 = system: LXFL 529
M14 = system: M14
M19-MEL = system: M19-MEL
MOLT-4 = system: MOLT-4
Malme-3M = system: Malme-3M
NCI-H460 = system: NCI-H460
NCI-H522 = system: NCI-H522
OVCAR-4 = system: OVCAR-4
OVCAR-5 = system: OVCAR-5
OVCAR-8 = system: OVCAR-8
RPMI-8226 = system: RPMI-8226
RXF 393 = system: RXF 393
SF-268 = system: SF-268
SF-295 = system: SF-295
SF-539 = system: SF-539
SK-MEL-2 = system: SK-MEL-2
SK-MEL-5 = system: SK-MEL-5
SK-OV-3 = system: SK-OV-3
SN12C = system: SN12C
SNB-19 = system: SNB-19
SNB-75 = system: SNB-75
SNB-78 = system: SNB-78
SR = system: SR
SW-620 = system: SW-620
TK-10 = system: TK-10
U-251 = system: U-251
UACC-257 = system: UACC-257
UACC-62 = system: UACC-62
UO-31 = system: UO-31
EKVX = system: EKVX
NCI-H226 = system: NCI-H226
NCI-H23 = system: NCI-H23
OVCAR-3 = system: OVCAR-3
SK-MEL-28 = system: SK-MEL-28

Measured: GI50

Nc1ccc2c(c1)CC1c3ccccc3C(C2)c2ccccc21
inactive: 786-0 > 100 µM | A498 > 100 µM | A549 > 100 µM | ACHN > 100 µM | CAKI-1 > 100 µM | CCRF-CEM 47.3 µM | COLO 205 > 100 µM | DLD-1 > 100 µM | DMS-114 > 100 µM | DMS-273 > 100 µM | HCC 2998 > 100 µM | HCT-116 > 100 µM | HL-60 > 100 µM | HOP-18 > 100 µM | HOP-62 > 100 µM | HOP-92 > 100 µM | HT-29 > 100 µM | IGROV-1 > 100 µM | K562 > 100 µM | KM-20L2 > 100 µM | KM12 > 100 µM | LOX IMVI > 100 µM | LXFL 529 > 100 µM | M14 > 100 µM | M19-MEL > 100 µM | MOLT-4 > 100 µM | Malme-3M > 100 µM | NCI-H460 > 100 µM | NCI-H522 > 100 µM | OVCAR-4 > 100 µM | OVCAR-5 > 100 µM | OVCAR-8 > 100 µM | RPMI-8226 34.6 µM | RXF 393 > 100 µM | SF-268 > 100 µM | SF-295 > 100 µM | SF-539 > 100 µM | SK-MEL-2 > 100 µM | SK-MEL-5 > 100 µM | SK-OV-3 > 100 µM | SN12C > 100 µM | SNB-19 > 100 µM | SNB-75 > 100 µM | SNB-78 > 100 µM | SR 9.68 µM | SW-620 > 100 µM | TK-10 > 100 µM | U-251 > 100 µM | UACC-257 > 100 µM | UACC-62 > 100 µM | UO-31 > 100 µM
> 100 µM: HCT-15

COc1ccc(C)cc(O)c1=O
> 100 µM: HCT-15
inactive: 786-0 10.5 µM | A498 38.4 µM | A549 > 100 µM | ACHN 22.8 µM | CAKI-1 28.2 µM | CCRF-CEM 10.7 µM | COLO 205 30.8 µM | DLD-1 35.1 µM | DMS-114 14 µM | DMS-273 44.7 µM | EKVX 38.8 µM | HCT-116 33.7 µM | HL-60 19.1 µM | HOP-18 40.9 µM | HOP-62 54.6 µM | HOP-92 26.2 µM | HT-29 44 µM | IGROV-1 39.9 µM | K562 45.4 µM | KM-20L2 40.2 µM | KM12 > 100 µM | LOX IMVI 11.9 µM | LXFL 529 16.2 µM | M14 21.2 µM | M19-MEL 32.3 µM | MOLT-4 9.06 µM | Malme-3M 57.1 µM | NCI-H226 > 100 µM | NCI-H23 40.1 µM | NCI-H460 17.7 µM | NCI-H522 30.4 µM | OVCAR-3 31.6 µM | OVCAR-4 45 µM | OVCAR-5 68.4 µM | RPMI-8226 39.6 µM | RXF 393 39.7 µM | SF-268 28.6 µM | SF-295 27.9 µM | SF-539 42.5 µM | SK-MEL-28 57.4 µM | SK-MEL-2 94.8 µM | SK-MEL-5 67.8 µM | SK-OV-3 > 100 µM | SN12C 38.5 µM | SNB-19 95.1 µM | SNB-75 > 100 µM | SNB-78 > 100 µM | SR 5.28 µM | SW-620 44 µM | TK-10 > 100 µM | U-251 42.8 µM | UACC-257 33.2 µM | UACC-62 22.3 µM | UO-31 27.4 µM
